The text below walks through data of article PMC5829821, “Mmf1p Couples Amino Acid Metabolism to Mitochondrial DNA Maintenance in Saccharomyces cerevisiae” (mBio, 2018).

Assay type in all cases: biochemical
One test concerns the target T1, RidA (Salmonella enterica, UniProt Q7CP78).
T1 construct: purified RidA, preparation described in earlier work
T1 sequence (Q7CP78 1-128): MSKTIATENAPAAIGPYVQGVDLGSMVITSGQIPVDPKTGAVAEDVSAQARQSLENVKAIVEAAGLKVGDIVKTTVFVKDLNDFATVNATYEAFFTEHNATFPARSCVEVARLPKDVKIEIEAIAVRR
Description: coupled: 2AA generated by Ilv1p([…]-576) from L-serine, pyruvate at A230. To be noted: 50 mM CHES pH 9.5, 0.6 µM Ilv1p, 1.3 µM RidA.

Another test concerns the target T2, Mmf1p(21−147) (Saccharomyces cerevisiae, UniProt P40185).
T2 construct: gene MMF1
T2 sequence (P40185 21-145): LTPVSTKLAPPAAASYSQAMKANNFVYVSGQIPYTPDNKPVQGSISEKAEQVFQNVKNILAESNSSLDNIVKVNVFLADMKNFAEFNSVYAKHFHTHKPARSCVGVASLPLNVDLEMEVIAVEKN
The description is as above. The following applies: 50 mM CHES pH 9.5, 0.6 µM Ilv1p, 1.3 µM Mmf1p.

Test [1] addresses T3, Ilv1p(46−576) (Saccharomyces cerevisiae, UniProt P00927).
T3 construct: gene ILV1
T3 sequence (P00927 46-576): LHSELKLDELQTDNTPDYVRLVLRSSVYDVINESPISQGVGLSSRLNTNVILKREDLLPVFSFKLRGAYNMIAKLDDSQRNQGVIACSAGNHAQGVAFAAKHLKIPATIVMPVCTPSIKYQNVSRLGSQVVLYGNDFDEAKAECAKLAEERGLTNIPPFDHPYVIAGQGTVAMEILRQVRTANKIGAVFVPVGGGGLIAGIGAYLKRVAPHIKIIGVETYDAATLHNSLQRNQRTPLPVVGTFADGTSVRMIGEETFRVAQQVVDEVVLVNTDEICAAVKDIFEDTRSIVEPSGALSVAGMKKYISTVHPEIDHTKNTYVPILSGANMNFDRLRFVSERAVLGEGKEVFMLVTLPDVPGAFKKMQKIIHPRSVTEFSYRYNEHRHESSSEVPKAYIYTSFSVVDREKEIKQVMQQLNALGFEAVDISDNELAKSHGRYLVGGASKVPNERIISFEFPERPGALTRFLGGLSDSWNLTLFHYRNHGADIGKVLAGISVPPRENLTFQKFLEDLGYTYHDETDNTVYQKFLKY
In words: pyruvate formation at A230, Michaelis-Menten fit. To be noted: 50 mM potassium phosphate pH 8.

Test [2] concerns the target T3, Ilv1p(46−576). The following applies: 120 mM L-serine, 50 mM potassium phosphate pH 8; allosteric.

As to `C=C(N)C(=O)O` [2-aminoacrylate], the “coupled: 2AA generated by Ilv1p(46-576) from L-serine, pyruvate at A230” value is 2AA-hydrolyzing activity of Mmf1p was indistinguishable from that of the well-characterized RidA enzyme at RidA and “released 2AA, which Mmf1p used as a substrate” on Mmf1p(21−147). Turning to `N[C@@H](CO)C(=O)O` [L-serine], at Ilv1p(46−576) [1], the “pyruvate formation at A230, Michaelis-Menten fit” value is “In vitro, Ilv1p dehydrated serine and released 2AA”. On to `CC[C@H](C)[C@H](N)C(=O)O` [isoleucine], for which, on Ilv1p(46−576) [2], the “inhibition at 3.3 mM” value is listed as “insensitive to isoleucine concentrations that completely inhibited the wild-type enzyme”.
